According to patent US10822310B2, “Prevention and treatment of human metabolic syndrome including type 2 diabetes, steatohepititis and related conditions using non-absorbable, orally administered compounds” (priority 2017, dated 2020):
One block for each compound: values may come before it.

Experiments:
[1] = rate studies of reaction with methyl glyoxal by reverse phase HPLC; settings: pH 7, aqueous solution
FATZO mice = assay: in vivo study in polygenic FATZO mouse model of metabolic syndrome, T2D and obesity
Experimental: (§1) In order to test the hypothesis that a non-absorbable compound which is confined to the GI tract can favorably affect metabolic syndrome T2D and related conditions in vivo studies were carried out with I/II using a polygenic mutant strain of mice that develop metabolic syndrome, T2D and obesity when fed a high fat (“Western type”) diet. This polygenic mouse model (“FATZO” mouse), developed by Eli Lilly Co. and PreClinOmics (now Crown Bio, Indianapolis, Ind.), has been described in detail (PLoS ONE, 12, 1-15 (2017). FATZO mice on a high fat diet generally gain weight, gradually become obese, and develop hyperglycemia, hypertension, glucose intolerance, insulin insensitivity and severe T2D. A group of FATZO mice were placed on a high fat diet (HFD) for an initial three-week ‘base’ period after which they were divided into two groups: Group 1 (the treated group) was maintained on a HFD along with 5 mg/day of I/II, administered in water by gavage. […] Blood glucose levels of the treated group were stabile and after six weeks about 50% below those of the untreated group. […] A third group of FATZO mice was maintained on a standard diet of ordinary mouse chow and also treated with 5 mg/day of I/II.

[2] = analysis of blood of treated mice by HPLC/mass spectrometry (absorption from GI tract); format: in vivo; settings: treated FATZO mice
Experimental: as §1

GLP-1 = assay: in vitro protection of GLP-1 from methyl glyoxal (UPLC/TOF-MS); format: biochemical; settings: 0.62 mM peptide, 30 mM phosphate buffer pH 7.4, 20 equiv methyl glyoxal, 37 degrees C, 3 hours, 5 equiv compound relative to methyl glyoxal
Experimental: In order to test further the hypothesis that intestinal peptide hormones might be compromised by the chemical action of gut microbial products, in vitro studies were carried out with GLP-1, PYY and Oxyntomodulin. For these studies methyl glyoxal was selected as electrophile because it is a well-known microbial metabolite and also relevant to metabolic syndrome, T2D and diabetic neuropathy; see Diabetes, 63, 50-52 (2014); Biochemical Soc. Transact, 42, 450-456 (2014); Clinical Sci., 128, 839-861 (2015); Hypertension, 56, 471-476 (2010). Methyl glyoxal has also been implicated in neurodegenerative diseases—see Neuroscience, 9, 1-12 (2015). […] Methyl glyoxal can be detected in blood in amounts that correlate with the severity of T2D. […]
The results of the in vitro studies that have been carried out using methyl glyoxal and each of three intestinal peptide hormones, GLP-1, PYY (a satiety-sensing hormone), and Oxyntomodulin, can be summarized as follows: • 1. […] The mixture was cooled to ambient temperature and analyzed by ultra-high pressure liquid chromatography (Agilent 1290 UPLC) coupled with detection by triple time of flight mass spectrometry (Scitex 5600 TRIPTOF mass spectrometer), each aliquot being diluted with 20% aqueous acetic acid. • 2. […]

[3] = standard diet of ordinary mouse chow, 5 mg/day, six weeks

- pKa (physchem): ~7.7
Compound: NCc1nc2cc(S(=O)(=O)O)ccc2[nH]1 [I, 2-(Aminiomethyl)-1H-benzol[d]imidazole-5-sulfonate]

Compound: CN(C)C(=N)N=C(N)N [metformin]
- reactivity (rate) toward methyl glyoxal relative to N-tosyl-arginine methyl ester [1]: less than one-tenth the rate

- behavior (FATZO mice; [3]): completely normal behavior
- absorption from the GI tract after oral administration [2]: no detectable absorption
- test compound in blood ([2]; oral administration, HPLC/mass spectrometry): < 0.01 mg. per mouse
Compound: NCc1nc2cc(S(=O)(=O)O)ccc2[nH]1 [I/II]
- fasting blood glucose level below that of untreated group (FATZO mice; high fat diet, 5 mg/day by gavage in water, after six weeks): about 50%
- body weight gain (FATZO mice; high fat diet, 5 mg/day by gavage, six weeks (untreated gained 2% per week)): no weight gain
- body weight gain (FATZO mice; [3]): no weight gain
- increase in fasting blood glucose levels (FATZO mice; [3]): no increase in fasting blood glucose levels
- GLP-1 remained unchanged (GLP-1): greater than 95%
